Measurements as given in US8637321B2, “Lipidomics approaches for central nervous system disorders” (priority 2005, dated 2014).

Columns and labels:
[1] = system: patients with schizophrenia; assay: Clinical Global Impressions (CGI) Scale psychopathology assessment; assay type: in vivo, human; conditions: means and standard error; for CGI Affective, Post / CGI Negative, Post / CGI Positive, Post: CGI Scale 1 to 7, higher scores greater severity; for CGI Change, Post: overall global change rating at follow-up (1-2 responders, 3-6 non-responders)
Excerpt: (§1) Fifty male and female patients were recruited in two studies for metabolic profiling (Table VI and Table VII for demographics). Subjects ranged in age from 18 to 60 years and met the following inclusion criteria: a) DSM-IV criteria for schizophrenia, schizophreniform disorder, or schizoaffective disorder; b) newly hospitalized for a psychotic exacerbation in the setting of no antipsychotic treatment for at least 3 weeks prior to admission; and c) provided signed informed consent. Patients with psychoses due to psychoactive substance abuse or an underlying medical condition were excluded. Patients who were receiving treatment for diabetes mellitus or hyperlipidemia were also excluded.
The choice and dose of antipsychotic medication was based on the doctor's judgment. […] The treatment duration was 2-3 weeks. […] The 2-3 week duration permits the study of acute early effects.
Psychopathology was assessed on the Clinical Global Impressions (CGI) Scale at baseline and at the time of follow-up blood draws. Scores for the CGI Scale can range from 1 to 7, with higher scores indicating greater severity of illness (Guy (1975) ECDEU Assessment Manual for Psychopharmacology: Publication ADM 76-338. Washington, D.C.: US Department of Health, Education, and Welfare). An overall global change rating was also made at the time of the follow-up blood draw.

[2] = system: patients with schizophrenia; assay: plasma lipid profiling pre- and post-treatment with antipsychotics; assay type: in vivo, human; as to CE18:3n3 I/D: key: I: increase; D: decrease; as to CE18:3n6 I/D: key: I: increase; D: decrease; as to CE20:3n6 I/D: key: I: increase; D: decrease; as to CE20:5n3 I/D: key: I: increase; D: decrease; as to FA18:0 I/D: key: I: increase; D: decrease; as to FA20:4n6 I/D: key: I: increase; D: decrease; as to FA22.1n9 I/D: key: I: increase; D: decrease; as to FASAT I/D: key: I: increase; D: decrease; as to FCLC I/D: key: I: increase; D: decrease; as to LY20:3n6 I/D: key: I: increase; D: decrease; as to LY20:3n9 I/D: key: I: increase; D: decrease; as to LY20:4n3 I/D: key: I: increase; D: decrease; as to LY20:5n3 I/D: key: I: increase; D: decrease; as to PC.n9 I/D: key: I: increase; D: decrease; as to PC18:0 I/D: key: I: increase; D: decrease; as to PC18:1n9 I/D: key: I: increase; D: decrease; as to PC20:2n6 I/D: key: I: increase; D: decrease; as to PC20:3n6 I/D: key: I: increase; D: decrease; as to PC20:3n9 I/D: key: I: increase; D: decrease; as to PC20:4n3 I/D: key: I: increase; D: decrease; as to PC20:5n3 I/D: key: I: increase; D: decrease; as to PC22:0 I/D: key: I: increase; D: decrease; as to PC22:4n6 I/D: key: I: increase; D: decrease; as to PCLC I/D: key: I: increase; D: decrease; as to PE18:3n6 I/D: key: I: increase; D: decrease; as to PE20:3n6 I/D: key: I: increase; D: decrease; as to PE20:3n9 I/D: key: I: increase; D: decrease; as to PE20:5n3 I/D: key: I: increase; D: decrease; as to PE22:5n6 I/D: key: I: increase; D: decrease; as to PELC I/D: key: I: increase; D: decrease; as to SP14:0 I/D: key: I: increase; D: decrease; as to SP20:3n6 I/D: key: I: increase; D: decrease; as to SPSAT I/D: key: I: increase; D: decrease; as to TG14:0 I/D: key: I: increase; D: decrease; as to TG18:0 I/D: key: I: increase; D: decrease; as to TG20:1n9 I/D: key: I: increase; D: decrease; as to TG20:3n6 I/D: key: I: increase; D: decrease; as to TG20:4n3 I/D: key: I: increase; D: decrease; as to TGLC I/D: key: I: increase; D: decrease
Excerpt: as §1
The choice and dose of antipsychotic medication was based on the doctor's judgment. […] The treatment duration was 2-3 weeks. […] The mean duration of therapy was about 2 weeks for all 3 drugs in Study II. The drug groups were otherwise generally similar in severity of disease and physical characteristics (Table VI and Table VII). The 2-3 week duration permits the study of acute early effects.
All blood samples were drawn from subjects in the early morning after overnight fasting. Blood was drawn into vacutainer tubes containing sodium heparin, immediately placed on ice, and within 10 minutes, the blood was centrifuged and the plasma was transferred into polypropylene tubes and stored in a −30° C. freezer. All baseline samples were drawn prior to starting antipsychotic treatment in the study. If a patient had received a dose of an antipsychotic during the referral process (e.g., because of agitation when initially seen in a local emergency department), drawing of baseline plasma samples was delayed for 2-3 days. Follow-up samples were drawn after patients had received an average of 2-3 weeks of acute antipsychotic treatment.
A comprehensive assessment of plasma lipid profiles was performed (Lipomics Technologies, West Sacramento, Calif.) according to established methods (Watkins, et al. (2002) J. Lipid Res. 43(11):1809-17). Quantitative measurements of fatty acids in various lipid classes were determined as nmol fatty acid/gram of plasma. Lipid classes included cholesterol esters (CE), free cholesterol (FC), triacylglycerols (TG), diacylglycerols (DG), free fatty acids (FA), lysophosphatidylcholine (LY), phosphatidylcholine (PC), and phosphatidylethanolamine (PE). Lipid metabolites are identified by the lipid class and the fatty acid moiety. In the context of this invention, fatty acids are identified first by the number of carbons in the molecule (e.g., 20), the number of double bonds in the molecule (e.g., 4), and lastly the position of the double bonds (e.g., n6). To illustrate, PC20:4n6 denotes a phosphatidylcholine molecule containing a 20 carbon fatty acid with 4 double bonds at the n6 position.
Significant differences between pre- and post-drug treatment were assessed by paired t-tests. Evaluation of response to drug was assessed by two-way ANOVA. All statistics were done using R with the following functions: t.test, anova, prcomp, and g/m (Team RDC (2005) R: A language and environment for statistical computing. R Foundation for Statistical Computing). Before beginning statistical analyses, change detection was used to determine if observed signals were greater than that which could be expected by chance (noise). The chance distribution of p-values was determined by permuting the outcome groupings (Golub, et al. (1999) Science 286(5439):531-7). Briefly, P values for the appropriate comparison were calculated for each metabolite using a Student's t-test. The metabolites were ranked by p value from smallest to largest. The log of the rank versus the log of the p value for each comparison of interest was plotted and is represented by a colored line. The distribution of p values expected by chance at each rank is indicated by the shaded area. […]

[3] = cited from earlier work; for effect on serum lipids / effects on serum glucose: in vivo; for risk of DM / metabolic effect: patients with schizophrenia; for weight gain, mean increases during the first year of therapy: prospective data
[4] = Study I, after 2-3 weeks treatment
[5] = Study II, about 2 weeks treatment
[6] = Study I, plasma, post-treatment vs pre-treatment
[7] = Study II, plasma, post vs pre-treatment
[8] = plasma, mole percentage data, post treatment compared with pretreatment
[9] = plasma, total lipid class data (nmol/g sample), post treatment compared with pretreatment

SMILES: O=C1CCc2ccc(OCCCCN3CCN(c4cccc(Cl)c4Cl)CC3)cc2N1 [Aripiprazole, aripiprazole]
- CGI Affective, Post [1, 4]: 1.5 ± 0.3
- CGI Negative, Post [1, 4]: 1.3 ± 0.3
- CGI Positive, Post [1, 4]: 2.5 ± 0.3
- CGI Change, Post ([1]; Study I): 2.5 ± 0.3
- CGI Affective, Post [1, 5]: 1.4 ± 0.2
- CGI Negative, Post [1, 5]: 1.6 ± 0.3
- CGI Positive, Post [1, 5]: 2.5 ± 0.2
- CGI Change, Post ([1]; Study II): 2.8 ± 0.2
- PE class concentration [2, 6]: increased
- fatty acid concentrations [2, 6]: very little change
- lipid changes overall [2, 6]: Minimal significant lipid changes
- n7 and n9 free fatty acids [2, 6]: no change
- total lipid classes other than PE [2, 6]: no other total lipid class changes
- lipid changes overall ([2]; Study II (replication set), plasma, post vs pre-treatment): minimal lipid changes
- fatty acid concentrations [2, 7]: very little change
- other lipid classes (than PE) [2, 7]: No significant changes
- PE concentration ([2]; Study II, plasma, post-treatment vs pre-treatment): increased
- plasma fatty acid compositions ([2]; patients after treatment): affected minimally
- CE18:0 I/D [2, 8]: I
- LY22.5n3 I/D [2, 8]: I
- PC22:5n6 I/D [2, 8]: I
- SP14:1n5 I/D [2, 8]: I
- SP18:3n3 I/D [2, 8]: I
- SPSAT I/D [2, 8]: I
- TG18:0 I/D [2, 8]: I
- TG22:2n6 I/D [2, 8]: I
- PELC I/D [2, 9]: I
- effect on serum lipids [3]: lipid-neutral
- effects on serum glucose [3]: minimal effects

SMILES: Cc1cc2c(s1)Nc1ccccc1N=C2N1CCN(C)CC1 [Olanzapine, olanzapine]
- CGI Affective, Post [1, 4]: 1.5 ± 0.2
- CGI Negative, Post [1, 4]: 2.2 ± 0.3
- CGI Positive, Post [1, 4]: 2.9 ± 0.2
- CGI Change, Post ([1]; Study I): 2.8 ± 0.2
- CGI Affective, Post [1, 5]: 1.2 ± 0.2
- CGI Negative, Post [1, 5]: 1 ± 0
- CGI Positive, Post [1, 5]: 2.4 ± 0.2
- CGI Change, Post ([1]; Study II): 3 ± 0.3
- CE18:3n3 I/D [2, 8]: I
- CE18:3n6 I/D [2, 8]: I
- CE20:3n6 I/D [2, 8]: I
- CE20:5n3 I/D [2, 8]: I
- FA18:0 I/D [2, 8]: I
- FA20:4n6 I/D [2, 8]: I
- FA22.1n9 I/D [2, 8]: I
- FASAT I/D [2, 8]: I
- LY20:3n6 I/D [2, 8]: I
- LY20:3n9 I/D [2, 8]: I
- LY20:4n3 I/D [2, 8]: I
- LY20:5n3 I/D [2, 8]: I
- PC18:0 I/D [2, 8]: I
- PC18:1n9 I/D [2, 8]: I
- PC20:2n6 I/D [2, 8]: I
- PC20:3n6 I/D [2, 8]: I
- PC20:3n9 I/D [2, 8]: I
- PC20:4n3 I/D [2, 8]: I
- PC20:5n3 I/D [2, 8]: I
- PC22:0 I/D [2, 8]: I
- PC22:4n6 I/D [2, 8]: I
- PC.n9 I/D [2, 8]: I
- PE18:3n6 I/D [2, 8]: I
- PE20:3n6 I/D [2, 8]: I
- PE20:3n9 I/D [2, 8]: I
- PE20:5n3 I/D [2, 8]: I
- PE22:5n6 I/D [2, 8]: I
- SP14:0 I/D [2, 8]: I
- SP20:3n6 I/D [2, 8]: I
- SPSAT I/D [2, 8]: I
- TG14:0 I/D [2, 8]: I
- TG20:1n9 I/D [2, 8]: I
- TG20:3n6 I/D [2, 8]: I
- TG20:4n3 I/D [2, 8]: I
- FCLC I/D [2, 9]: I
- PCLC I/D [2, 9]: I
- PELC I/D [2, 9]: I
- TGLC I/D [2, 9]: I
- risk of DM / metabolic effect [3]: higher risk
- weight gain, mean increases during the first year of therapy [3]: 15.0-26.0 lbs

SMILES: CN1CCN(C2=Nc3cc(Cl)ccc3Nc3ccccc32)CC1 [clozapine]
- risk of DM / metabolic effect [3]: higher risk

SMILES: O=C(CCCN1CCC(O)(c2ccc(Cl)cc2)CC1)c1ccc(F)cc1 [haloperidol]
- risk of DM / metabolic effect [3]: metabolically neutral

SMILES: OCCOCCN1CCN(C2=Nc3ccccc3Sc3ccccc32)CC1 [quetiapine]
- effect on serum lipids [3]: discrepant data
- weight gain, mean increases during the first year of therapy [3]: 6.1-12.3 lbs

SMILES: O=C1Cc2cc(CCN3CCN(c4nsc5ccccc45)CC3)c(Cl)cc2N1 [ziprasidone]
- effect on serum lipids [3]: lipid-neutral
- effects on serum glucose [3]: minimal effects
